Measurements published in patent US20080219977A1, “Combinations Comprising Gemcitabine and Tyrosine Kinase Inhibitors for the Treatment of Pancreatic Cancer” (priority 2005, published 2008).
Marks after values point to notes of the source that are not given here.

Assays:
[1] = target: T1, VEGFR (Mus musculus, UniProt P35918); assay: Double immunofluorescence CD31/pVEGFR on tumor-associated endothelial cells; assay type: in vivo, nude mice; conditions: double immunofluorescence with CD31
T1 construct: Frozen sections of pancreatic tumors are mounted on slides and fixed; from tissue; host or cells: tumour-associated endothelial cells in L3.6pl tumours of nude mice

[2] = test system: tumor-associated endothelial cells; assay: CD31/TUNEL fluorescent double labeling, apoptosis of tumor-associated endothelial cells; assay type: in vivo, nude mice; conditions: Median ± S.D.; ratio of apoptotic endothelial cells to total endothelial cells
Description: Double Immunofluorescence Staining for CD31/PECAM-1 and EGFR, pEGFR, VEGFR, pVEGFR, PDGFRβ, pPDGFRβ, Pericytes (desmin-positive cells), and TUNEL. Frozen sections of pancreatic tumors are mounted on slides and fixed. Immunofluorescence for CD31 is performed using Alexa594 conjugated secondary antibody, and samples are again blocked briefly in a blocking solution (5% normal horse serum and 1% normal goat serum in PBS) as described above and incubated with antibody against human EGFR, pEGFR, VEGFR, pVEGFR, PDGFRβ, pPDGFRβ, or desmin at 4° C. overnight. After washes and blocking with blocking solution, samples are incubated with Alexa488 conjugated secondary antibody. Endothelial cells are identified by red fluorescence, and EGF-R, pEGFR, VEGFR, pVEGFR, PDGFRβ, pPDGFRβ and desmin positive cells (pericytes) are identified by green fluorescence. The presence of growth factor receptors and phosphorylated receptors on endothelial cells are detected by colocalization of red and green fluorescence, which appeared yellow. TUNEL-positive apoptotic cells are detected by localized green fluorescence within cell nuclei, and endothelial cells are identified by red fluorescence. Apoptotic endothelial cells are identified by yellow fluorescence within the nuclei.

[3] = test system: L3.6pl human pancreatic cancer cells; assay: Cell proliferation (PCNA) IHC in L3.6pl tumors; assay type: in vivo; conditions: Median ± S.D., positive cells in 10 random 0.159-mm^2 fields at ×100
Description: (§1) IHC Determination of Proliferating Cell Nuclear Antigen (PCNA), CD31/PECAM-1 (Endothelial Cells) and TUNEL (Apoptosis). Paraffin-embedded tissues are used for IHC identification of proliferating cell nuclear antigen (PCNA). Frozen tissues used for identification of CD31/PECAM-1 are sectioned (8-10 μm), mounted on positively charged slides, and air-dried for 30 min. Frozen sections are fixed in cold acetone (5 min), in acetone/chloroform (v/v; 5 min), and again in acetone (5 min), and washed with PBS. IHC procedures are performed as described previously (Hwang et al. in Clin Cancer Res 2003; 9:6534-44). […] Statistical Analysis. Body weight, tumor weight, PCNA-positive cells, mean vessel density (CD31/PECAM-1), and TUNEL-positive cells are compared using the Mann-Whitney U test. Survival analysis is computed by the Kaplan-Meier method and compared by the Log rank test.

[4] = test system: EGF, VEGF, PDGF-BB, EGFR, VEGFR, and PDGFR; assay: IHC expression level of growth factors and receptors in L3.6pl pancreatic tumors; assay type: in vivo, human; conditions: IHC of pancreatic tumors from treated mice
Text: (§2) Immunohistochemical (IHC) Analysis to Detect EGF, VEGF, PDGF-BB, EGFR, VEGFR, PDGFRβ, pEGFR, pVEGFR, pPDGF-R in Pancreatic Tumors. Paraffin-embedded pancreatic tumors of mice from all treatment groups are immunostained to evaluate the expression of EGF, VEGF, PDGF-BB, EGFR, VEGFR, PDGFRβ, phosphorylated (p)EGFR, pVEGFR, and pPDGFRβ. The sections are deparaffinized in xylene, dehydrated with alcohol and rehydrated in PBS. Endogenous peroxidase is blocked with 3% hydrogen peroxide in PBS. Samples are exposed to protein block (5% normal horse serum, 1% normal goat serum in PBS) and incubated overnight at 4° C. with each primary antibody at the appropriate dilution. After 1 h incubation at room temperature with peroxidase-conjugated secondary antibody, positive reaction is detected by exposure to stable 3,3′-diaminobenzidine (DAB) (Phoenix Biotechnologies, Huntsville, Ala.). Slides are counterstained with Gill's #3 hematoxylin. Sections stained for immunoperoxidase or hematoxylin and eosin are examined in a microscope equipped with a three-chip-charged coupled device (CCD) color video camera. Digital images are captured using Optimas Image Analysis software (Media Cybernetics, Md.).

[5] = target: T2, EGFR (Homo sapiens, UniProt P00533); assay: IHC analysis of phosphorylated EGFR in L3.6pl pancreatic tumors; assay type: in vivo; conditions: IHC of pancreatic tumors from treated mice
T2 construct: Paraffin-embedded pancreatic tumors of mice from all treatment groups are immunostained; from tissue; host or cells: L3.6pl orthotopic pancreatic tumours grown in nude mice
Text: as §2, with “After 1 h incubation at room temperature with peroxidase-conjugated secondary antibody, positive reaction is detected by exposure to stable 3,3′-diaminobenzidine (DAB) (Phoenix Biotechnologies, Huntsville, Ala.).” left out

[6] = test system: Endothelial cells; assay: Mean vessel density (CD31/PECAM-1) in L3.6pl tumors; assay type: in vivo, nude mice; conditions: Median ± S.D., microvessels in 10 random 0.159-mm^2 fields at ×100
Description: as §1, with “9:6534-44). Control samples exposed to a secondary antibody alone show no specific staining.” for “9:6534-44).”

[7] = Body weight of nude mice in the L3.6pl therapy study; assay type: in vivo; conditions: nude mice with orthotopic L3.6pl tumors; AEE788 50 mg/kg oral 3x/week, STI571 50 mg/kg oral daily, gemcitabine 50 mg/kg i.p. twice weekly; 4 weeks, killed day 49; n=10
Description: Treatment of Established Human Pancreatic Carcinoma Tumors Growing in the Pancreas of Athymic Nude Mice. Twenty-one days after the intra-pancreatic injection of 0.5×10^6 viable L3.6pl cells in 50 μl HBSS, the pancreatic tumors reach the size of 5-6-mm. […] All mice are treated for 4 weeks and killed on day 49 of the experiment.
Necropsy Procedures and Histological Studies. In the first treatment study, the mice are killed on day 49 after tumor cell injection, weighted, and necropsied. Tumors growing in the pancreas are excised and weighed. For immunohistochemical staining procedures, one part of the tumor tissue is fixed in formalin and embedded in paraffin and the other is embedded in OCT compound (Miles, Inc., Elkhart, Ind.), rapidly frozen in liquid nitrogen, and stored at −70° C.
Statistical Analysis. Body weight, tumor weight, PCNA-positive cells, mean vessel density (CD31/PECAM-1), and TUNEL-positive cells are compared using the Mann-Whitney U test. Survival analysis is computed by the Kaplan-Meier method and compared by the Log rank test.

[8] = target: T3, EGFR (Mus musculus, UniProt Q01279); assay: Double immunofluorescence CD31/pEGFR on tumor-associated endothelial cells; assay type: in vivo, nude mice; conditions: double immunofluorescence with CD31
T3 construct: Frozen sections of pancreatic tumors are mounted on slides and fixed; from tissue; host or cells: tumour-associated endothelial cells in L3.6pl tumours of nude mice

[9] = test system: VEGFR; assay: IHC analysis of phosphorylated VEGFR in L3.6pl pancreatic tumors; assay type: in vivo, human; conditions: IHC of pancreatic tumors from treated mice
Text: as §2, with “After 1 h incubation at room temperature with peroxidase-conjugated secondary antibody, positive reaction is detected by exposure to stable 3,3′-diaminobenzidine (DAB) (Phoenix Biotechnologies, Huntsville, Ala.).” left out

[10] = test system: L3.6pl human pancreatic cancer cells; assay: Therapy of established L3.6pl human pancreatic carcinoma tumors growing in the pancreas of athymic nude mice (tumor weight); assay type: in vivo; conditions: for Tumor weight (g) Median: pancreatic tumor, AEE788 50 mg/kg oral 3x/week, STI571 50 mg/kg oral daily, gemcitabine 50 mg/kg i.p. twice weekly, 4 weeks, killed day 49, n=10; for effect on tumor growth (in words): L3.6pl implanted in the pancreas of nude mice, each drug 50 mg/kg
Text: Animals and Orthotopic Implantation of Tumor Cells. Male athymic nude mice (NCI-nu) are purchased from the Animal Production Area of the National Cancer Institute Frederick Cancer Research and Development Center (Frederick, Md.). The mice are housed and maintained under specific pathogen-free conditions. The mice are used when they are 8 to 12 weeks old. To produce pancreatic tumors, L3.6pl cells are harvested from subconfluent cultures by a brief exposure to 0.25% trypsin and 0.02% EDTA. Trypsinization is stopped with medium containing 10% FBS, and the cells are washed once in serum-free medium and resuspended in Hanks' balanced salt solution (HBSS). Only suspensions consisting of single cells with greater than 90% viability are used for injection into the pancreas of nude mice as described previously (Hwang et al. in Clin Cancer Res 2003; 9:6534-44). Treatment of Established Human Pancreatic Carcinoma Tumors Growing in the Pancreas of Athymic Nude Mice. Twenty-one days after the intra-pancreatic injection of 0.5×10^6 viable L3.6pl cells in 50 μl HBSS, the pancreatic tumors reach the size of 5-6-mm. […] All mice are treated for 4 weeks and killed on day 49 of the experiment. Necropsy Procedures and Histological Studies. […] Tumors growing in the pancreas are excised and weighed. For immunohistochemical staining procedures, one part of the tumor tissue is fixed in formalin and embedded in paraffin and the other is embedded in OCT compound (Miles, Inc., Elkhart, Ind.), rapidly frozen in liquid nitrogen, and stored at −70° C. Statistical Analysis. Body weight, tumor weight, PCNA-positive cells, mean vessel density (CD31/PECAM-1), and TUNEL-positive cells are compared using the Mann-Whitney U test. Survival analysis is computed by the Kaplan-Meier method and compared by the Log rank test.

[11] = test system: L3.6pl human pancreatic cancer cells; assay: Apoptosis (TUNEL) in L3.6pl tumors; assay type: in vivo; conditions: Median ± S.D.; TUNEL-positive cells in 10 random 0.159-mm^2 fields at ×100
Description: Analysis of apoptotic cells is performed by using a commercially available TUNEL kit (Promega) with the following modifications: Samples are fixed and incubated with an equilibration buffer followed by a reaction buffer (containing nucleotide mix and terminal deoxynucleotidyl transferase enzyme). Immunofluorescence microscopy is performed in a Zeiss Axioplan microscope (Carl Zeiss, Inc., Thornwood, N.Y.) equipped with an HBO 100 mercury lamp, narrow bandpass filters to individually select for green, red, and blue fluorescence (Chroma Technology Corp., Brattleboro, Vt.). Images are captured using a cooled CCD Hamamatsu Orca camera (Hamamatsu Corp., Bridgewater, N.J.) and Image Pro Analysis software (Media Cybernetics, Silver Spring, Md.). Photomontages are prepared using Adobe Photoshop software (Adobe Systems, Inc., San Jose, Calif.). […] Statistical Analysis. Body weight, tumor weight, PCNA-positive cells, mean vessel density (CD31/PECAM-1), and TUNEL-positive cells are compared using the Mann-Whitney U test. Survival analysis is computed by the Kaplan-Meier method and compared by the Log rank test.

[12] = test system: tumor-associated endothelial cells; assay: Pericyte (desmin) coverage on tumor-associated endothelial cells; assay type: in vivo, nude mice; conditions: desmin-positive cells in contact with CD31-positive cells
Description: Double Immunofluorescence Staining for CD31/PECAM-1 and EGFR, pEGFR, VEGFR, pVEGFR, PDGFRβ, pPDGFRβ, Pericytes (desmin-positive cells), and TUNEL. Frozen sections of pancreatic tumors are mounted on slides and fixed. Immunofluorescence for CD31 is performed using Alexa594 conjugated secondary antibody, and samples are again blocked briefly in a blocking solution (5% normal horse serum and 1% normal goat serum in PBS) as described above and incubated with antibody against human EGFR, pEGFR, VEGFR, pVEGFR, PDGFRβ, pPDGFRβ, or desmin at 4° C. overnight. After washes and blocking with blocking solution, samples are incubated with Alexa488 conjugated secondary antibody. Endothelial cells are identified by red fluorescence, and EGF-R, pEGFR, VEGFR, pVEGFR, PDGFRβ, pPDGFRβ and desmin positive cells (pericytes) are identified by green fluorescence. The presence of growth factor receptors and phosphorylated receptors on endothelial cells are detected by colocalization of red and green fluorescence, which appeared yellow. The coverage of pericytes on endothelial cells is determined by counting CD31 positive cells in direct contact with desmin-positive cells and CD31-positive cells without direct association with desmin-positive cells in five randomly selected microscopic fields.

[13] = test system: PDGFRβ; assay: IHC analysis of phosphorylated PDGFRβ in L3.6pl pancreatic tumors; assay type: in vivo, human; conditions: IHC of pancreatic tumors from treated mice
Text: as §2, with “After 1 h incubation at room temperature with peroxidase-conjugated secondary antibody, positive reaction is detected by exposure to stable 3,3′-diaminobenzidine (DAB) (Phoenix Biotechnologies, Huntsville, Ala.).” left out

[14] = target: T4, PDGFRβ (Mus musculus, UniProt P05622); assay: Double immunofluorescence CD31/pPDGFRβ on tumor-associated endothelial cells; assay type: in vivo, nude mice; conditions: double immunofluorescence with CD31
T4 construct: Frozen sections of pancreatic tumors are mounted on slides and fixed; from tissue; host or cells: tumour-associated endothelial cells in L3.6pl tumours of nude mice

[15] = listed as {6-[4-(4-ethyl-piperazin-1-ylmethyl)-phenyl]-7H-pyrrolo[2,3-d]pyrimidin-4-yl}-(1)

T2 sequence (P00533 25-1210): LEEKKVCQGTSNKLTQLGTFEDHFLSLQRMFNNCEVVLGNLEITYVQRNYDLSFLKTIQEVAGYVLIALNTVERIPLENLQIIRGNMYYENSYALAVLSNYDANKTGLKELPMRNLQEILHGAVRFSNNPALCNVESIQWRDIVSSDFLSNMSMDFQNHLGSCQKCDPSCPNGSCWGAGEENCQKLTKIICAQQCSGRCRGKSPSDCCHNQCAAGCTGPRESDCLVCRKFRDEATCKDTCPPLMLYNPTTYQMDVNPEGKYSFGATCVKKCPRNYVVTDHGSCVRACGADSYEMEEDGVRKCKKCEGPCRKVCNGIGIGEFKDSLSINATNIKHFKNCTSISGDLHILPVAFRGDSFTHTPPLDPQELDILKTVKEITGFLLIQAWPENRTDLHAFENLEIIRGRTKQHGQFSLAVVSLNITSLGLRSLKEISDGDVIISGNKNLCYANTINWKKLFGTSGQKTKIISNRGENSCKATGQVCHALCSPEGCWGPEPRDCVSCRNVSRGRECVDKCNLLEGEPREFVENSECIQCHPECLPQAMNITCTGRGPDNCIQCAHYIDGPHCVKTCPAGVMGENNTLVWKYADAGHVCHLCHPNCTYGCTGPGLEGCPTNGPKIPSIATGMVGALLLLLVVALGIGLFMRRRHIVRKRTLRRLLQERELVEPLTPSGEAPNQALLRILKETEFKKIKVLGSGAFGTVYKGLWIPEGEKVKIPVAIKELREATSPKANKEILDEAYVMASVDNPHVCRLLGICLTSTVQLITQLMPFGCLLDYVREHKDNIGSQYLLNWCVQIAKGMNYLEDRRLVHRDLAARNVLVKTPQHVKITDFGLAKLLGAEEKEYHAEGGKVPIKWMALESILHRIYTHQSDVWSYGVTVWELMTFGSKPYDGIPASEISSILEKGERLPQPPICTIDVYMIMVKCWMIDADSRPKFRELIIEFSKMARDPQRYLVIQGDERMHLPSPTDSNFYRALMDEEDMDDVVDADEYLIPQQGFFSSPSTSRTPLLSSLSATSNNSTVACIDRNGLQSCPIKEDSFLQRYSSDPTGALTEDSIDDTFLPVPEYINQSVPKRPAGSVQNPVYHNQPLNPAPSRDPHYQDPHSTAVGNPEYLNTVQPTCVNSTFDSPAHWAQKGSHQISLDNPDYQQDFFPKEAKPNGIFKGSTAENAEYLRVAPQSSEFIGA
T4 sequence (P05622 32-1098): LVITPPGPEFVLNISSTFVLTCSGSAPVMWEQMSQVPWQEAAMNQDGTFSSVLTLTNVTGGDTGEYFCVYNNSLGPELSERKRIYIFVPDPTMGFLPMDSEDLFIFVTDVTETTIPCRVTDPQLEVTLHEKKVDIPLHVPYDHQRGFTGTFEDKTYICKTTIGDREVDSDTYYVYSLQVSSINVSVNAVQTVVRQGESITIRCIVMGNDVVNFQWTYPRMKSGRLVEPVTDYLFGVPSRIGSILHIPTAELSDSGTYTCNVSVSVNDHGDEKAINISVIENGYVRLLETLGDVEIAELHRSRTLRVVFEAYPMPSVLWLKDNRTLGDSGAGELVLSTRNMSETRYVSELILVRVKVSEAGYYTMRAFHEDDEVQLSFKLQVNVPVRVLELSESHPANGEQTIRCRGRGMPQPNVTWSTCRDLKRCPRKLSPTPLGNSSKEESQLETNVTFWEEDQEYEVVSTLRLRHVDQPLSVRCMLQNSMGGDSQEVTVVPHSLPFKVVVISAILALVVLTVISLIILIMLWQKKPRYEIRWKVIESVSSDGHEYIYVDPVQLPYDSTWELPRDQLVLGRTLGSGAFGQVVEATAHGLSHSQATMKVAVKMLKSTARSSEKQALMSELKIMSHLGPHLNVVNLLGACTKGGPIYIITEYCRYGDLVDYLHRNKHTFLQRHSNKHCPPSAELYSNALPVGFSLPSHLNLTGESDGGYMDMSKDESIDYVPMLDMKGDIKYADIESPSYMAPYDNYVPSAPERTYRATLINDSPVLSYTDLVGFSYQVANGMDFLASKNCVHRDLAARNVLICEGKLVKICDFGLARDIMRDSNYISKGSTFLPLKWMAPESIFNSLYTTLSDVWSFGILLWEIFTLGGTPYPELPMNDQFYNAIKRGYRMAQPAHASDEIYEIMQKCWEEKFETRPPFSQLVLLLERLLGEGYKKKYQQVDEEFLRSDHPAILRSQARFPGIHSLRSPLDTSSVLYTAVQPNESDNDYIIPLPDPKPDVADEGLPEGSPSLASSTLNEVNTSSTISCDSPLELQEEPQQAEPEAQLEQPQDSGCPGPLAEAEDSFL
T1 sequence (P35918 20-1345): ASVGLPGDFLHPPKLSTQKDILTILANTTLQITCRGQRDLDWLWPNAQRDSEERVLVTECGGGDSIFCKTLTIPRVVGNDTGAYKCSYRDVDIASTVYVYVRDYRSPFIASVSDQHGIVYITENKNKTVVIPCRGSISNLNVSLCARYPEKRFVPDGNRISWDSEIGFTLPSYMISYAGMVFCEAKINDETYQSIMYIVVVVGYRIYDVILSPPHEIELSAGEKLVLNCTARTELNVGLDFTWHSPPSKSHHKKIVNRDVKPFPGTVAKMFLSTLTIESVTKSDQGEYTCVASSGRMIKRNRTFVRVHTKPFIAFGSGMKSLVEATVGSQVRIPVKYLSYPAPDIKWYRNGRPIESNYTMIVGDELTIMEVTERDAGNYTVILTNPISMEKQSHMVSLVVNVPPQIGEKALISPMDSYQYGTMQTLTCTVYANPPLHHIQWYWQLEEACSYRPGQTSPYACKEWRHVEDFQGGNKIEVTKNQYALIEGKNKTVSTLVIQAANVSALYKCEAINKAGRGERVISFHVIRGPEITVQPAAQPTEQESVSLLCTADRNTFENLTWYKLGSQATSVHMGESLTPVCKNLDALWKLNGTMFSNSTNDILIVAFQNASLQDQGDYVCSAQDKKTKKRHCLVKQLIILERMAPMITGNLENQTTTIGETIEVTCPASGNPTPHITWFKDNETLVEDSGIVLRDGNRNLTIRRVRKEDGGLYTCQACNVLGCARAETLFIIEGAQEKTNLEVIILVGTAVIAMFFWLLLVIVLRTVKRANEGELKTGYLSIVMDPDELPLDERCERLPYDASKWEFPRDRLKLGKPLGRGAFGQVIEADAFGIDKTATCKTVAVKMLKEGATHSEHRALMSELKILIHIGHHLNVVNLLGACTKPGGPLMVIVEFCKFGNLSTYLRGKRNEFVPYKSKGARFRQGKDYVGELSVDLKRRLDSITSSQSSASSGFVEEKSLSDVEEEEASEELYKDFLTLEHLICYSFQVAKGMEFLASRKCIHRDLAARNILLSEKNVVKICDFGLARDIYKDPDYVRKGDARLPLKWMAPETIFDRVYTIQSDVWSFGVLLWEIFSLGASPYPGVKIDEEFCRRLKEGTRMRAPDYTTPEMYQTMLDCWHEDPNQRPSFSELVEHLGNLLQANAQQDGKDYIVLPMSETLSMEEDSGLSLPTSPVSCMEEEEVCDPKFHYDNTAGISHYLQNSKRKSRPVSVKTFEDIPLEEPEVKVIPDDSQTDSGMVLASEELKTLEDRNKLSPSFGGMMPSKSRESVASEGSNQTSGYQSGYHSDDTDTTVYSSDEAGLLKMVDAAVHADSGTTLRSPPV
T3 sequence (Q01279 25-1210): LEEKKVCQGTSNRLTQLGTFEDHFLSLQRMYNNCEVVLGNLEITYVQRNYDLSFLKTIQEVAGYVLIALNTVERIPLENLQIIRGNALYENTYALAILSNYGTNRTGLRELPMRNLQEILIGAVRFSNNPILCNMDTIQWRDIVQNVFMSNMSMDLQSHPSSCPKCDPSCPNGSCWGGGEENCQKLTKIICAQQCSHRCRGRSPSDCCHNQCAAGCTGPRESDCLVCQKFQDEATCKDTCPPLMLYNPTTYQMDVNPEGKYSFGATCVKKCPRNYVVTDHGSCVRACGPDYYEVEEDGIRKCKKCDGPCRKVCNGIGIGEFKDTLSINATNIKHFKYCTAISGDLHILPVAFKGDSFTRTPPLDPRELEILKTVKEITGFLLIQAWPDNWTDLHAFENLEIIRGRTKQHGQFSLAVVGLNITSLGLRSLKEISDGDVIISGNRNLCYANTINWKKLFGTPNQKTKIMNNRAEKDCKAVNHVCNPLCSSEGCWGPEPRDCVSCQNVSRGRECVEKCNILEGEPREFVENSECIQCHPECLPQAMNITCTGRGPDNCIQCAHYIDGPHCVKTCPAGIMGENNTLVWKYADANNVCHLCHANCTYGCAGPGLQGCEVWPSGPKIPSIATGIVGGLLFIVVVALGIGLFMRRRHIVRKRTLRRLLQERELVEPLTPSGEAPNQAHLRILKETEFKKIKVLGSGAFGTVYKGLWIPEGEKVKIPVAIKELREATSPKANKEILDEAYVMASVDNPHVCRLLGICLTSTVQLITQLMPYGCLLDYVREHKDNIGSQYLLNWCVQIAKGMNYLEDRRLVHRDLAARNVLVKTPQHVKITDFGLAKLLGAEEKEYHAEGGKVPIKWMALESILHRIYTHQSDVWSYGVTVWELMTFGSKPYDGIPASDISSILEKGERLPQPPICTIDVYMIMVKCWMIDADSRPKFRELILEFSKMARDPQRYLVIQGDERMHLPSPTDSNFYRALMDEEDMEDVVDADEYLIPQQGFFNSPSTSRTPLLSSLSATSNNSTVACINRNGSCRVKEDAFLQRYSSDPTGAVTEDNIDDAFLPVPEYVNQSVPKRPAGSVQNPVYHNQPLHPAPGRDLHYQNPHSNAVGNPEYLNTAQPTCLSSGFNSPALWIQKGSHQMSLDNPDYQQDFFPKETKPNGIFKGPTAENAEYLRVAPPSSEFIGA

phosphorylation of VEGFR on tumor-associated endothelial cells [1] | phosphorylation of EGFR in tumors [5] | phosphorylation of EGFR in tumors [5, 15] | phosphorylation of EGFR on tumor-associated endothelial cells [8] | phosphorylation of PDGFRβ on tumor-associated endothelial cells [14] | Compound | Endothelial cells TUNEL+ (%) [2] | Tumor cells PCNA (number of PCNA-positive cells) [3] | expression level of EGF, VEGF, PDGF-BB, EGFR, VEGFR, and PDGFR by the tumor cells or in the stroma cells [4] | Endothelial cells CD31 (mean vessel density) [6] | Body weight(g) Median [7] [g] | phosphorylation of VEGFR in tumors [9] | phosphorylation of VEGFR in tumors [9, 15] | Tumor weight (g) Median [10] [g] | Tumor cells TUNEL (number of apoptotic tumor cells) [11] | pericyte coverage on tumor-associated endothelial cells [12] | phosphorylation of PDGFRβ in tumors [13] | effect on tumor growth (in words) [10] | Tumor cells PCNA (number of PCNA-positive cells) ([3]; listed as gemcitabine) | Endothelial cells CD31 (mean vessel density) ([6]; listed as gemcitabine)
diminished | significantly reduced | decreases phosphorylation | diminished | – | CCN1CCN(Cc2ccc(-c3cc4c(N[C@H](C)c5ccccc5)ncnc4[nH]3)cc2)CC1 [AEE788] | 3 ± 3^e % | 233 ± 54^e | do not alter the expression level | 25 ± 5^d | 26.2 | significantly reduced | decreases phosphorylation | 0.33 | 14 ± 4^f | – | – | – | – | –
– | – | – | – | decreased | Cc1ccc(NC(=O)c2ccc(CN3CCN(C)CC3)cc2)cc1Nc1nccc(-c2cccnc2)n1 [STI571, N-{5-[4-(4-methyl-piperazino-methyl)-benzoylamido]-2-methylphenyl}-4-(3-pyridyl)-2-pyrimidine-amine] | 0 ± 0% | – | do not alter the expression level | – | – | – | – | 0.96 | 6 ± 2 | decreases pericyte coverage | inhibited | does not inhibit tumor growth | – | –
– | – | – | – | – | Nc1ccn([C@@H]2O[C@H](CO)[C@@H](O)C2(F)F)c(=O)n1 [Gemcitabine] | 1 ± 1% | 305 ± 71 | do not alter the expression level | 38 ± 7 | 25.7 | – | – | 0.78 | 8 ± 3^f | – | – | does not inhibit tumor growth | decreases the number of dividing PCNA-positive cells | does not decrease MVD
